Source: patent US20230227437A1, “IMMUNOMODULATOR” (priority 2020, published 2023)

Tests used:
[1] = molecular target: T1, hIL-17A (Homo sapiens, UniProt Q16552); assay: Inhibition of hIL-17A-induced chemokine GROα/CXCL1 production in HT-29 cell; type: cell-based
T1 construct: purchased R&D 317-ILB
T1 sequence (Q16552 20-155 limits assumed): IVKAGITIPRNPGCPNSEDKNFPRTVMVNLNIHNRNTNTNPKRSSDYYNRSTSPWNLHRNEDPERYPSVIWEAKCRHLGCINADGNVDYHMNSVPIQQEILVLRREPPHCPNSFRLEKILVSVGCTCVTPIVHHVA
Description: Human colorectal adenocarcinoma cell HT-29 was inoculated to a 96-well plate (5×10^4 for per well), and incubated at 37° C. on an incubator overnight. A mixture of 30 ng/mL hIL-17A protein (R&D, #317-ILB) with gradient concentrations of IL-17A small molecule inhibitors or with 0.3 μg/mL positive control IL-17A antibody (R&D, #AF-317-NA) was incubated for 1 h at 37° C., and added into the 96-well plate to incubated with HT-29 at 37° C. for 48 h. A level of GROα in a cell culture supernatant was then detected using an ELISA kit for GROα (Cisbio, #62HCXC1peg).
Inhibitory effect of the compound prepared in Examples on hIL-17A-induced chemokine GROα/CXCL1 production in HT-29 cell was tested according to the methods of Experimental Examples 1 and 2. […] “-” indicated not tested. According to the results, the compounds provided herein have good human IL-17A inhibitory activity and can be effectively used in the treatment of diseases associated with abnormal hIL-17A activity.

[2] = Drug metabolism properties (pharmacokinetics) in mice; type: in vivo; conditions: mouse, plasma, intravenous injection/oral gavage, read-out: Oral bioavailability F % (mice)
Description: In order to investigate the drug metabolism property of the compounds provided herein in mice, a compound solution was given to 6 mice by intravenous injection/oral gavage at corresponding doses. Mice were divided into groups A and B for each administration, where anticoagulated whole blood was collected from group A at 5 min, 30 min, 2 h and 8 h after drug administration; and anticoagulated whole blood was collected from group B at 15 min, 1 h, 4 h and 24 h after drug administration. plasma was separated.
(§1) Plasma concentrations of compounds were determined by standard curve calibration method using LC-MS. Using Winnolin 5.2 software, plasma concentration-time data were fitted to pharmacokinetic parameters, including elimination half-life (T1/2), area under the plasma pharmacokinetic curve at the sampling endpoint (AUClast), peak concentration (Cmax), apparent volume of distribution (Vz), total clearance ration (Cl), and absolute bioavailability (F %).

[3] = molecular target: T2, human IL-17A (hIL-17A) (Homo sapiens, UniProt Q16552); assay: IL-17A enzyme-linked immunosorbent assay (competitive ELISA, receptor-ligand binding)
T2 construct: purchased Sino Biological Inc. 12047-H07B
T2 sequence (Q16552 24-155): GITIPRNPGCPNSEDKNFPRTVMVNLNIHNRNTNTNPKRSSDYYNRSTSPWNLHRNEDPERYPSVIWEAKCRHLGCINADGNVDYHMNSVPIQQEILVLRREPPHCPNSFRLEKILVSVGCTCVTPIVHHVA
Description: The inhibition of receptor-ligand binding by human IL-17A (hIL-17A) inhibitors was detected by competitive ELISA. A 96-well plate was inoculated 0.2 μg/ml IL-17 (Sino Biological Inc. Cat #12047-H07B) for incubation at 37° C. for 30 min, 100 μL for per well. The 96-well plate was washed four times with phosphate buffered saline (PBS) containing Tween-20 (PBST, 0.05% Tween-20), 200 μL for per well each time. 200 μL of 5% skim milk were added into the 96-well plate for incubation on a shaker at 25° C. for 30 min. The 96-well plate was washed four times with PBST (0.05% Tween-20), and added with 89 μL of PBST and 1 μL of a compound to be measured (100×), in which a concentration the compound to be measured (100×) was 0.003 μM-30 μM. The mixture was mixed evenly and incubated at 25° C. for 10 min. The mixture was added with 10 μL of 16 nM IL-17R, followed by incubation at 25° C. for 30 min. After washing the 96-well plate 4 times, 100 μL of anti-Fc tag horseradish peroxidase (HRP) coupled antibody were added for incubation on a shaker at 25° C. for 30 min. After washing the 96-well plate 4 times, 100 μL of 3,3′,5,5′-tetramethylbenzidine (TMB) substrate solution were added to the 96-well plate for incubation away from light at 25° C. After addition of 20% HCl, an absorbance was measure by a microplate reader at 450 nm.
The compounds prepared according to the above method were assayed for human IL-17A inhibitory activity.

[4] = Drug metabolism properties (pharmacokinetics) in rats; type: in vivo; conditions: plasma; rat, intravenous injection/oral gavage; read-out: Oral bioavailability F % (rat)
Description: In order to investigate the drug metabolism property of the compounds provided herein in rats, a compound solution was given to 3 rats by intravenous injection/oral gavage at corresponding doses. After 5 min, 15 min, 30 min, 1 h, 2 h, 4 h, 8 h and 24 h administration, anticoagulated whole blood was collected from rats, and plasma was separated.
as §1

[5] = Drug metabolism properties (pharmacokinetics) in dogs; type: in vivo; conditions: both sexes, plasma; dog, intravenous injection/oral gavage; read-out: Oral bioavailability F % (dog)
Description: In order to investigate the drug metabolism property of the compounds provided herein in dogs, a compound solution was given to 2 groups of dogs (4 dogs (2 males+2 females) for each group) by intravenous injection/oral gavage at corresponding doses. After […], 15 min, 30 min, 1 h, 2 h, 4 h, 8 h, 12 h, 24 h and 36 h administration, anticoagulated whole blood was collected from dogs, and plasma was separated.
as §1

[6] = molecular target: T3, hIL-17A protein (Homo sapiens, UniProt Q16552); assay: Binding to hIL-17A protein through surface plasmon resonance (SPR, Biacore 8K); conditions: for ka / kd: SPR; for binding to hIL-17A (SPR, in words): compared with the positive compound
T3 sequence (Q16552 24-155): T2 sequence (Q16552 24-155)
Description: The binding of the compounds provided herein to the hIL-17A protein was tested using SPR, and analyzed using a Biacore 8K system. A positive compound was the compound of Example 32 in WO2020/127685A1.

[7] = molecular target: T4, hIL-17A/RA (Homo sapiens, UniProt Q16552); assay: Reversibility of binding by jump dilution ELISA (hIL-17A/hIL-17RA); conditions: for maintenance of binding to and inhibition of hIL-17A protein (jump dilution, in words): compared with the positive compound
T4 construct: biotin label (inferred from streptavidin-HRP detection)
T4 sequence (Q16552 24-155): T2 sequence (Q16552 24-155)
Description: The reversibility of the binding of the compounds in Examples to hIL-17A and the binding time of the compound-protein complex were qualitatively and quantitatively analyzed by jump dilution assay. The positive compound was the compound of Example 32 in WO2020/127685 A1. 7 nM hIL-17RA were inoculated to a 96-well plate (100 μL for per well), and incubated at 37° C. for 30 min. A blank group was 100 μL of coating buffer solution. After […] incubation at 4° C., the 96-well plate was washed with PBST (0.05% Tween-20) 4 times, 200 μL for per well each time. The 96-well plate was added with 200 μL 3% BSA (PBST diluted) and closed on a shaker at 37° C. for 30 min. […] The configured hIL7A was mixed with an equal volume of compound in a 200 ul centrifuge tube to obtain a protein-compound mixture. The protein-compound mixture was subjected to pre-incubation at room temperature for 15 min. The protein-compound mixture, positive control group and negative control group were diluted 200×. After closing, the 96-well plate was washed 4 times, and added with dilution 100 μL for per well to incubate at 25° C. for 28, 24, 5, 2 and 0 h. After washing the plate 4 times, 100 μL of Streptavidin-HRP coupled antibody diluted with 1% BSA was added and then incubated for 30 min on a shaker at 25° C. After washing the plate 4 times, 100 μL of TMB substrate solution were added, and incubated away from light for 5-15 min at 25° C. (depending on the color of the reaction). After addition of 20% HCl, an absorbance was measure by a microplate reader at 450 nm.

[8] = system: imiquimod cream-induced psoriasis model; assay: Pharmacodynamic test of imiquimod cream-induced psoriasis model in mice; type: in vivo, C57BL/6N mice
Description: The backs of […] female C57BL/6N mice were shaved approximately 2.5×4 cm, and imiquimod (IMQ, Imiquimod) cream was applied continuously from day 1 to day 5 to establish a psoriasis model. The compound 26 provided herein (3, 10, 30 mg/kg) was given once daily by gavage to the mice, an IL-17A antibody solution (Ab, 2 mg/kg) was given by intraperitoneal injection every other day to the mice, or a dexamethasone solution (10 mg/kg) was given once daily by intraperitoneal injection to the mice. […] A skin thickness of mice was measured on the first day and fifth day to examine IMQ-induced skin thickening (FIG. 3B).
The skin of each group of mice was collected on the fifth day to detect IL6 mRNA levels by RT-qPCR (FIG. 3C). […] The plasma of mice in each group was collected on the fifth day to determine the level of IL-6 protein (FIG. 3D).

SMILES	IC50 [1] [nM]	IC50 [3] [nM]	further results
Cc1n[nH]c(C)c1-c1ccc(NC(=O)[C@@H](NC(=O)c2ccnn2C(C)C)C2c3ccc(F)cc3OCC23CC3)cn1 (some centres unmarked) [Compound 18]	332	164	bioavailability [2]: 55%; bioavailability [4]: 18%; bioavailability [5]: 41%
CCc1nonc1C(=O)N[C@H](C(=O)Nc1ccc(-c2c(C)n[nH]c2C)nc1)C1c2ccc(F)cc2OCC12CC2 (some centres unmarked) [Compound 26]	267	70	ka [6]: 21300 M⁻¹ s⁻¹; kd [6]: 1.98e-08 s⁻¹; binding to hIL-17A (SPR, in words) [6]: strong binding to hIL-17A and were much stronger than the positive compound; maintenance of binding to and inhibition of hIL-17A protein (jump dilution, in words) [7]: able to maintain binding to and inhibit the activity of hIL-17A protein for a long time; bioavailability [2]: 54%; bioavailability [4]: 16%; skin pathological injury, HE staining ([8]; 30 mg/kg, fifth day, FIGS. 4A-4D): effective in inhibiting IMQ-induced skin inflammatory cell infiltration and damage; IMQ-induced skin inflammation, AUC of PASI scoring ([8]; 3, 10, 30 mg/kg once daily by gavage, FIG. 3A): attenuated the level of IMQ-induced skin inflammation with effects similar to those of the IL-17A antibody; skin IL6 mRNA levels by RT-qPCR ([8]; fifth day, FIG. 3C): dose-dependent reversion; IL-6 protein level in plasma ([8]; fifth day, FIG. 3D): inhibited in a dose-dependent manner; IMQ-induced skin thickening ([8]; skin thickness first day and fifth day, FIG. 3B): reversed the skin thickening caused by IMQ to varying degrees
Cc1n[nH]c(C)c1-c1ncc(NC(=O)[C@@H](NC(=O)c2ccnn2C(C)C)C2c3cc(F)c(F)cc3OCC23CC3)cc1F (some centres unmarked) [Compound 47]	172	88	Kd [6]: 0.00169 nM; ka [6]: 20400 M⁻¹ s⁻¹; kd [6]: 3.44e-08 s⁻¹; binding to hIL-17A (SPR, in words) [6]: strong binding to hIL-17A and were much stronger than the positive compound; maintenance of binding to and inhibition of hIL-17A protein (jump dilution, in words) [7]: able to maintain binding to and inhibit the activity of hIL-17A protein for a long time; 50% enzyme activity retention time, Value on hIL-17A/RA (10X cpds) ([7]; jump dilution, 10X cpds): >28 h
Cc1n[nH]c(C)c1-c1ccc(NC(=O)[C@@H](NC(=O)c2nonc2C2CC2)C2c3ccc(F)cc3OCC23CC3)cc1 (some centres unmarked) [Compound 94]	695	572	–
Cc1n[nH]c(C)c1-c1ccc(NC(=O)[C@@H](NC(=O)c2nonc2C2CC2)C2c3ccc(F)cc3OCC23CC3)cn1 (some centres unmarked) [Compound 95]	457	94	–
Cc1n[nH]c(C)c1-c1ncc(NC(=O)[C@@H](NC(=O)c2conc2C2CC2)C2c3cc(F)c(F)cc3OCC23CC3)cc1F (some centres unmarked) [Compound 96]	134	125	–
Cc1n[nH]c(C)c1-c1ccc(NC(=O)[C@@H](NC(=O)c2conc2C2CC2)C2c3cc(F)c(F)cc3OCC23CC3)cn1 (some centres unmarked) [Compound 97]	221	165	–
Cc1n[nH]c(C)c1-c1ccc(NC(=O)[C@@H](NC(=O)c2conc2C2CC2)C2c3ccc(F)cc3OCC23CC3)cn1 (some centres unmarked) [Compound 99]	213	96	–
Cc1n[nH]c(C)c1-c1ncc(NC(=O)[C@@H](NC(=O)c2conc2C2CC2)C2c3ccc(F)cc3OCC23CC3)cc1F (some centres unmarked) [Compound 100]	563	189	–
Cc1n[nH]c(C)c1-c1ccc(NC(=O)[C@@H](NC(=O)OC2CC2)C2c3cc(F)c(F)cc3OCC23CC3)cn1 (some centres unmarked) [Compound 105]	943	81	–
Cc1n[nH]c(C)c1-c1ccc(NC(=O)[C@@H](NC(=O)OC2CC2)C2c3cc(F)c(F)cc3OCC23CC3)cc1 (some centres unmarked) [Compound 106]	119	66	–
COC(=O)N[C@H](C(=O)Nc1ccc(-c2c(C)n[nH]c2C)cc1)C1c2cc(F)c(F)cc2OCC12CC2 (some centres unmarked) [Compound 107]	383	51	–
